Experimental data taken from DBAASP.
≈ marks a conversion by molar mass, not a printed value. One block for each compound: values may come before it.

Key:
Experiment in all cases: ≥ marks a high value that may be exact or a test limit, other limits are often not marked, values filed in µg/mL are converted to µM
[1] = test system: Pseudomonas aeruginosa Ps4
[2] = test system: Micrococcus luteus ATCC 9341
[3] = test system: Staphylococcus aureus ATCC 6538P
Escherichia coli JM109 = test system: Escherichia coli JM109
Staphylococcus aureus = test system: Staphylococcus aureus
Aspergillus fumigatus = test system: Aspergillus fumigatus
Escherichia coli JW0013 = test system: Escherichia coli JW0013
[4] = test system: Clavibacter michiganensis subsp. michiganensis DSM 46294
[5] = test system: Pseudomonas syringae pv. tomato DC3000
[6] = test system: Pseudomonas syringae pv. syringae DSM 10604
[7] = test system: Staphylococcus aureus 90857
[8] = test system: Xanthomonas vesicatoria DSM 50861
[9] = test system: Pectobacterium carotovorum subsp. carotovorum DSM 30168
[10] = test system: Pseudomonas corrugata DSM 7228
[11] = test system: Escherichia coli DH5alpha
Klebsiella pneumoniae = test system: Klebsiella pneumoniae
Pseudomonas aeruginosa = test system: Pseudomonas aeruginosa
Salmonella typhimurium = test system: Salmonella typhimurium

MIC [1]: ≥ 176 µM
SMILES: NC(=O)C[C@H](NC(=O)[C@H](CCCN=C(N)N)NC(=O)[C@H](CCCN=C(N)N)NC(=O)[C@H](Cc1c[nH]c2ccccc12)NC(=O)[C@@H](N)Cc1ccccc1)C(=O)N[C@@H](Cc1ccccc1)C(=O)N[C@@H](Cc1c[nH]c2ccccc12)C(=O)N[C@@H](CCCN=C(N)N)C(=O)N[C@@H](CCCN=C(N)N)C(N)=O [FWRRNFWRR]

MIC [2]: 0.2 µM (≈ 0.359 µg/mL)
SMILES: CC(C)C[C@H](N)C(=O)N1CCC[C@H]1C(=O)N[C@@H](Cc1c[nH]c2ccccc12)C(=O)N[C@@H](CCCCN)C(=O)N[C@@H](Cc1c[nH]c2ccccc12)C(=O)N1CCC[C@H]1C(=O)N[C@@H](Cc1c[nH]c2ccccc12)C(=O)N[C@@H](Cc1c[nH]c2ccccc12)C(=O)N1CCC[C@H]1C(=O)N[C@@H](Cc1c[nH]c2ccccc12)C(=O)N[C@@H](CCCN=C(N)N)C(=O)N[C@@H](CCCN=C(N)N)C(N)=O [LPWKWPWWPWRR]

MIC [3]: 5.42 µM
MIC (Escherichia coli JM109): 17.4 µM
MIC (Staphylococcus aureus): > 46.3 µM
SMILES: CC[C@H](C)[C@H](NC(=O)[C@H](C)NC(=O)[C@H](CC(C)C)NC(=O)[C@H](CS)NC(=O)[C@H](Cc1cnc[nH]1)NC(=O)[C@H](C)NC(=O)[C@H](C)NC(=O)[C@H](CS)NC(=O)[C@@H](N)CC(C)C)C(=O)N[C@@H](CCCN=C(N)N)C(=O)N[C@@H](CCCN=C(N)N)C(=O)N[C@@H](CCCN=C(N)N)C(N)=O [LCAAHCLAIRRR]

MIC (Aspergillus fumigatus): 18 µM (≈ 39 µg/mL)
SMILES: CC(C)[C@H](NC(=O)[C@@H](N)CCCCN)C(=O)N[C@@H](C)C(=O)N[C@@H](CCCCN)C(=O)N[C@@H](CCC(N)=O)C(=O)N[C@@H](CCC(=O)O)C(=O)N[C@@H](CCCCN)C(=O)N[C@@H](CCCCN)C(=O)N[C@@H](CCCCN)C(=O)N[C@@H](CCCCN)C(=O)N[C@@H](CCCCN)C(=O)N[C@H](C(=O)NCC(=O)N[C@@H](CCCN=C(N)N)C(=O)N[C@@H](C)C(=O)N[C@@H](CCCCN)C(=O)N[C@@H](CCCN=C(N)N)C(=O)N[C@@H](CCCN=C(N)N)C(=O)O)[C@@H](C)O [KVAKQEKKKKKTGRAKRR]

MIC [1]: ≥ 172 µM
SMILES: CC[C@H](C)[C@H](NC(=O)[C@H](CC(N)=O)NC(=O)[C@H](CCCN=C(N)N)NC(=O)[C@H](CCC(N)=O)NC(=O)[C@H](Cc1c[nH]c2ccccc12)NC(=O)[C@@H](N)Cc1ccccc1)C(=O)N[C@@H](CCCN=C(N)N)C(=O)N[C@@H](CCCCN)C(=O)N[C@@H](Cc1ccccc1)C(=O)N[C@@H](CCCN=C(N)N)C(N)=O [FWQRNIRKFR]

MIC (Escherichia coli JW0013): 1.37 µM (≈ 3.3 µg/mL)
SMILES: CC[C@H](C)[C@H](NC(=O)[C@H](CCCN=C(N)N)NC(=O)[C@H](CCCN=C(N)N)NC(=O)[C@@H]1CCCN1C(=O)[C@@H]1CCCN1C(=O)[C@H](CCCN=C(N)N)NC(=O)[C@@H](NC(=O)[C@H](CCCN=C(N)N)NC(=O)[C@@H]1CCCN1C(=O)[C@H](CC(C)C)NC(=O)[C@H](Cc1ccc(O)cc1)NC(=O)[C@@H]1CCCN1C(=O)[C@@H]1CCCN1C(=O)[C@H](CCCCN)NC(=O)[C@H](CC(=O)O)NC(=O)[C@@H](N)C(C)C)[C@@H](C)CC)C(=O)N[C@@H](Cc1ccc(O)cc1)C(=O)N[C@@H](CC(N)=O)C(=O)N[C@@H](CCCN=C(N)N)C(N)=O [VDKPPYLPRIRPPRRIYNR]

MIC [4]: 0.308 µM (≈ 0.5 µg/mL)
MIC [5]: 0.615 µM (≈ 0.999 µg/mL)
MIC [6]: 0.308 µM (≈ 0.5 µg/mL)
MIC [7]: 0.625 µM (≈ 1.02 µg/mL)
MIC [8]: 0.308 µM (≈ 0.5 µg/mL)
MIC [9]: 1.54 µM (≈ 2.5 µg/mL)
MIC [10]: 0.308 µM (≈ 0.5 µg/mL)
SMILES: CC[C@H](C)[C@H](NC(=O)[C@H](CCCN=C(N)N)NC(=O)[C@H](CCCN=C(N)N)NC(=O)[C@H](CC(C)C)NC(=O)[C@H](Cc1ccccc1)NC(=O)[C@H](CCCN=C(N)N)NC(=O)[C@@H](N)CC(C)C)C(=O)N[C@@H](CC(C)C)C(=O)N[C@@H](CCCN=C(N)N)C(=O)N[C@@H](CCCN=C(N)N)C(=O)N[C@@H](CC(C)C)C(=O)N[C@@H](CC(C)C)C(N)=O [LRFLRRILRRLL]

MIC [11]: 10 µM (≈ 18.8 µg/mL)
MIC [2]: 0.4 µM (≈ 0.752 µg/mL)
MIC (Klebsiella pneumoniae): 15 µM (≈ 28.2 µg/mL)
MIC (Pseudomonas aeruginosa): 50 µM (≈ 94 µg/mL)
MIC (Salmonella typhimurium): 25 µM (≈ 47 µg/mL)
SMILES: CC[C@H](C)[C@H](N)C(=O)N[C@@H](CC(C)C)C(=O)N1CCC[C@H]1C(=O)N[C@@H](Cc1c[nH]c2ccccc12)C(=O)N[C@@H](CCCCN)C(=O)N[C@@H](Cc1c[nH]c2ccccc12)C(=O)N[C@@H](C)C(=O)N[C@@H](Cc1c[nH]c2ccccc12)C(=O)N[C@@H](Cc1c[nH]c2ccccc12)C(=O)N1CCC[C@H]1C(=O)N[C@@H](Cc1c[nH]c2ccccc12)C(=O)N[C@@H](CCCN=C(N)N)C(=O)N[C@@H](CCCN=C(N)N)C(N)=O [ILPWKWAWWPWRR]

MIC [2]: 0.8 µM (≈ 1.46 µg/mL)
SMILES: CC[C@H](C)[C@H](N)C(=O)N[C@@H](CC(C)C)C(=O)N1CCC[C@H]1C(=O)N[C@@H](Cc1c[nH]c2ccccc12)C(=O)N[C@@H](CCCCN)C(=O)N[C@@H](Cc1c[nH]c2ccccc12)C(=O)N1CCC[C@H]1C(=O)N[C@@H](Cc1c[nH]c2ccccc12)C(=O)N[C@@H](Cc1c[nH]c2ccccc12)C(=O)N1CCC[C@H]1C(=O)N[C@@H](Cc1c[nH]c2ccccc12)C(=O)N[C@@H](CCCN=C(N)N)C(=O)N[C@@H](C)C(N)=O [ILPWKWPWWPWRA]

MIC [4]: 0.922 µM (≈ 2.5 µg/mL)
MIC [5]: 1.84 µM (≈ 5 µg/mL)
MIC [6]: 3.69 µM (≈ 10 µg/mL)
MIC [7]: 4 µM (≈ 10.8 µg/mL)
MIC [8]: 0.922 µM (≈ 2.5 µg/mL)
MIC [9]: 3.69 µM (≈ 10 µg/mL)
MIC [10]: 3.69 µM (≈ 10 µg/mL)
SMILES: CC(C)C[C@H](NC(=O)[C@H](Cc1ccccc1)NC(=O)[C@H](CC(C)C)NC(=O)[C@H](CCCN=C(N)N)NC(=O)[C@H](CC(C)C)NC(=O)[C@H](Cc1ccccc1)NC(=O)[C@H](CC(C)C)NC(=O)[C@H](CCCN=C(N)N)NC(=O)[C@H](Cc1ccccc1)NC(=O)[C@H](CC(C)C)NC(=O)[C@H](CCCN=C(N)N)NC(=O)[C@H](Cc1ccccc1)NC(=O)[C@H](CC(C)C)NC(=O)[C@H](Cc1ccccc1)NC(=O)[C@H](CC(C)C)NC(=O)[C@H](CCCN=C(N)N)NC(=O)[C@H](CCCN=C(N)N)NC(=O)[C@@H](N)CCCCN)C(=O)N[C@@H](CCCCN)C(=O)N[C@@H](CCCCN)C(N)=O [KRRLFLFRLFRLFLRLFLKK]

MIC [1]: ≥ 52.4 µM
SMILES: NC(=O)[C@H](CCCN=C(N)N)NC(=O)[C@H](Cc1c[nH]c2ccccc12)NC(=O)[C@H](CCCN=C(N)N)NC(=O)[C@H](Cc1c[nH]c2ccccc12)NC(=O)[C@H](CCCN=C(N)N)NC(=O)[C@H](Cc1c[nH]c2ccccc12)NC(=O)[C@@H](N)Cc1ccccc1 [FWRWRWR]

MIC (Escherichia coli JW0013): 1.94 µM (≈ 4.8 µg/mL)
SMILES: CC[C@H](C)[C@H](NC(=O)[C@H](CCCN=C(N)N)NC(=O)[C@H](CCCN=C(N)N)NC(=O)[C@@H]1CCCN1C(=O)[C@@H]1CCCN1C(=O)[C@H](CCCN=C(N)N)NC(=O)[C@@H]1CCCN1C(=O)[C@H](CCCN=C(N)N)NC(=O)[C@@H]1CCCN1C(=O)[C@H](CC(C)C)NC(=O)[C@H](Cc1ccc(O)cc1)NC(=O)[C@@H]1CCCN1C(=O)[C@@H]1CCCN1C(=O)[C@H](CCCCN)NC(=O)[C@H](CC(=O)O)NC(=O)[C@@H](N)Cc1c[nH]c2ccccc12)C(=O)N[C@@H](Cc1ccc(O)cc1)C(=O)N[C@@H](CC(N)=O)C(=O)N[C@@H](CCCN=C(N)N)C(N)=O [WDKPPYLPRPRPPRRIYNR]

MIC (Escherichia coli JW0013): 2.03 µM (≈ 4.8 µg/mL)
SMILES: CC[C@H](C)[C@H](NC(=O)[C@H](CCCN=C(N)N)NC(=O)[C@H](CCCN=C(N)N)NC(=O)[C@@H]1CCCN1C(=O)[C@@H]1CCCN1C(=O)[C@H](CCCN=C(N)N)NC(=O)[C@@H]1CCCN1C(=O)[C@H](CCCN=C(N)N)NC(=O)[C@@H]1CCCN1C(=O)[C@H](CC(C)C)NC(=O)[C@H](Cc1cnc[nH]1)NC(=O)[C@@H]1CCCN1C(=O)[C@@H]1CCCN1C(=O)[C@H](CCCCN)NC(=O)[C@H](CC(=O)O)NC(=O)[C@@H](N)C(C)C)C(=O)N[C@@H](Cc1ccc(O)cc1)C(=O)N[C@@H](CC(N)=O)C(=O)N[C@@H](CCCN=C(N)N)C(N)=O [VDKPPHLPRPRPPRRIYNR]

MIC [1]: ≥ 142 µM
SMILES: CC[C@H](C)[C@H](NC(=O)[C@H](CC(N)=O)NC(=O)[C@H](CCCN=C(N)N)NC(=O)[C@H](CCC(N)=O)NC(=O)[C@H](Cc1c[nH]c2ccccc12)NC(=O)[C@@H](N)Cc1ccccc1)C(=O)N[C@@H](CCCN=C(N)N)C(=O)N[C@@H](CCCCN)C(=O)N[C@H](C(=O)N[C@@H](CCCCN)C(=O)N[C@@H](CCCCN)C(=O)N[C@@H](CCCCN)C(=O)N[C@@H](CCCCN)C(N)=O)C(C)C [FWQRNIRKVKKKK]

MIC [1]: ≥ 174 µM
SMILES: CC(C)[C@H](NC(=O)[C@H](CCCCN)NC(=O)[C@H](CCCN=C(N)N)NC(=O)[C@H](Cc1ccccc1)NC(=O)[C@H](CC(N)=O)NC(=O)[C@H](CCCN=C(N)N)NC(=O)[C@H](CCC(N)=O)NC(=O)[C@H](Cc1c[nH]c2ccccc12)NC(=O)[C@@H](N)Cc1ccccc1)C(=O)N[C@@H](CCCN=C(N)N)C(N)=O [FWQRNFRKVR]

MIC [1]: ≥ 201 µM
SMILES: CC[C@H](C)[C@H](NC(=O)[C@H](CC(N)=O)NC(=O)[C@H](CCCN=C(N)N)NC(=O)[C@H](CCC(N)=O)NC(=O)[C@H](Cc1c[nH]c2ccccc12)NC(=O)[C@@H](N)Cc1ccccc1)C(=O)N[C@@H](CCCCN)C(=O)N[C@H](C(=O)N[C@@H](CCCN=C(N)N)C(N)=O)C(C)C [FWQRNIKVR]
